Test results published in patent publication US6720346B2, “Thiazole benzamide derivatives and pharmaceutical compositions for inhibiting cell proliferation” (Agouron Pharmaceuticals, Inc., priority 2001, dated 2004).

Key:
[1] = system: HCT-116 cell line; test: Inhibition of cell growth, MTT tetrazolium salt assay; type: cell-based; conditions: HCT-116 cells; for HCT-116 % Inhibition at 0.1 μM: 0.1 μM compound; for HCT-116 % Inhibition at 0.25 μM: 0.25 μM compound
How it was run: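 Growth inhibition was read as MTT-formazan absorbance at 540 nm, after 4 h with 0.2 mg/mL MTT. Before that, HCT-116 cells had been exposed 3–5 days at 37 °C to compounds in 0.5% (v/v) DMSO, added 4 h after plating. 50% and 90% inhibitory concentrations were taken from semi-log concentration–inhibition plots versus vehicle controls.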

[2] = biological target: T1, human CDK4/cyclin D3 (Homo sapiens, UniProt P11802); test: Inhibition of CDK4/cyclin D retinoblastoma kinase activity (Ki; % inhibition); type: biochemical; conditions: 0.03 μM compound
T1 construct: made in house; host or cells: insect cells co-infected with baculovirus vectors
T1 sequence (P11802 whole entry): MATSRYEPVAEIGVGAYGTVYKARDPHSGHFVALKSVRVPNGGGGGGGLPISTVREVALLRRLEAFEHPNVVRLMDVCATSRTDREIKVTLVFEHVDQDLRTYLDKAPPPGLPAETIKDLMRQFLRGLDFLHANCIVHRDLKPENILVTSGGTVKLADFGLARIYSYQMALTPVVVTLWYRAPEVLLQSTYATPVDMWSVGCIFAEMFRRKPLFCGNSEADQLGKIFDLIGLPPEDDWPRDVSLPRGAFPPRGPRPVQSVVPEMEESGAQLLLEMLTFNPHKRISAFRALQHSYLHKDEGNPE
T1 sequence (P30281 1-264 partner limits assumed): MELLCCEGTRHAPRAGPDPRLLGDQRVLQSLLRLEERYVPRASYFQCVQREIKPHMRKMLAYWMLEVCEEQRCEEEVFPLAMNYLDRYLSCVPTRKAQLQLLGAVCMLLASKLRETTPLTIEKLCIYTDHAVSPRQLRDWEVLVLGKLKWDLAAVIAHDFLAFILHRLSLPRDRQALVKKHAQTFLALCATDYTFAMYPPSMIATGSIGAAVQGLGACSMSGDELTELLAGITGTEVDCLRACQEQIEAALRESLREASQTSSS
How it was run: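 Radiometric filter-binding read-out: Rb residues 386-928 phosphorylated by 5 nM CDK4/cyclin D3(1-264) from baculovirus-infected insect cells, 25 μM ATP, HEPES pH 7.4, 30 °C. Run 20 min, or 60 min for tight-binding inhibitors. Screening at 30 nM theoretical compound; apparent Ki by competitive-inhibition fitting.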

[3] = biological target: T2, CDK2/cyclin A (Homo sapiens, UniProt P24941); test: Inhibition of CDK2/cyclin A retinoblastoma kinase activity (Ki; % inhibition); type: biochemical; conditions: 0.03 μM compound
T2 construct: made in house; host or cells: CDK2: insect cells (baculovirus); cyclin A: E. coli
How it was run: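 Apparent Ki values came from fitting concentration-dependent activity data to competitive (or competitive tight-binding) models, and % inhibition from single 30 nM screens of library compounds. Activity was measured as ³²P/³³P incorporation from 25 μM ATP into an Rb substrate by 10 or 19 nM CDK2/delta cyclin A at 30 °C over 60–75 min, pH 7.4.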

SMILES | HCT-116 % Inhibition at 0.1 μM [1] | HCT-116 % Inhibition at 0.25 μM [1] | CDK4 % Inhibition at 0.03 μM [2] | CDK2 % Inhibition at 0.03 μM [3]
CCCCCNC(=O)c1ccc(Nc2nc(N)c(C(=O)c3c(F)cccc3F)s2)cc1 [Example G200] | 19% | 50% | 23% | 15%
Nc1nc(Nc2ccc(C(=O)N3CCC(O)(c4ccccc4)CC3)cc2)sc1C(=O)c1c(F)cccc1F [Example G202] | 20% | 48% | 25% | 5%
COc1cccc(CCNC(=O)c2ccc(Nc3nc(N)c(C(=O)c4c(F)cccc4F)s3)cc2)c1OC [Example G203] | 18% | 53% | 20% | 7%
CCCc1ccc(NC(=O)c2ccc(Nc3nc(N)c(C(=O)c4c(F)cccc4F)s3)cc2)cc1 [Example G204] | 19% | 49% | 10% | 6%
CCCCOc1ccc(NC(=O)c2ccc(Nc3nc(N)c(C(=O)c4c(F)cccc4F)s3)cc2)cc1 [Example G205] | 12% | 52% | 7% | 1%
Nc1nc(Nc2ccc(C(=O)NCCc3ccccc3F)cc2)sc1C(=O)c1c(F)cccc1F [Example G206] | 13% | 58% | 19% | 13%
Nc1nc(Nc2ccc(C(=O)Nc3ccccc3CCO)cc2)sc1C(=O)c1c(F)cccc1F [Example G207] | 15% | 66% | 15% | 15%
Nc1nc(Nc2ccc(C(=O)NCc3ccc(OC(F)(F)F)cc3)cc2)sc1C(=O)c1c(F)cccc1F [Example G208] | 11% | 56% | 36% | 36%
CCN(Cc1ccccc1)C(=O)c1ccc(Nc2nc(N)c(C(=O)c3c(F)cccc3F)s2)cc1 [Example G209] | 9% | 50% | 16% | 9%
CCOC(=O)C1CCN(C(=O)c2ccc(Nc3nc(N)c(C(=O)c4c(F)cccc4F)s3)cc2)CC1 [Example G210] | 15% | 45% | 20% | 13%
Nc1nc(Nc2ccc(C(=O)NCCc3ccc(Cl)c(Cl)c3)cc2)sc1C(=O)c1c(F)cccc1F [Example G211] | 13% | 45% | 23% | 23%
COc1ccc(NC(=O)c2ccc(Nc3nc(N)c(C(=O)c4c(F)cccc4F)s3)cc2)cc1OC [Example G212] | 17% | 53% | 20% | 16%
Nc1nc(Nc2ccc(C(=O)Nc3ccon3)cc2)sc1C(=O)c1c(F)cccc1F [Example G213] | 16% | 49% | 9% | −1%
CC[C@H](NC(=O)c1ccc(Nc2nc(N)c(C(=O)c3c(F)cccc3F)s2)cc1)c1ccccc1 [Example G214] | 15% | 52% | 16% | 11%
COc1ccc(NC(=O)c2ccc(Nc3nc(N)c(C(=O)c4c(F)cccc4F)s3)cc2)cn1 [Example G215] | 22% | 73% | 27% | 18%
Nc1nc(Nc2ccc(C(=O)NCc3cccc(Cl)c3Cl)cc2)sc1C(=O)c1c(F)cccc1F [Example G216] | 16% | 54% | 36% | 29%
Nc1nc(Nc2ccc(C(=O)N3CCN(Cc4ccccc4)CC3)cc2)sc1C(=O)c1c(F)cccc1F [Example G217] | 8% | 51% | 34% | 17%
CCCCN(C)C(=O)c1ccc(Nc2nc(N)c(C(=O)c3c(F)cccc3F)s2)cc1 [Example G218] | 11% | 52% | 19% | 8%

SMILES | HCT-116 % Inhibition at 0.1 μM [1] | HCT-116 % Inhibition at 0.25 μM [1] | CDK4 % Inhibition at 0.03 μM [2] | CDK2 % Inhibition at 0.03 μM [3]
C=CCNC(=O)c1ccc(Nc2nc(N)c(C(=O)c3c(F)cccc3F)s2)cc1 [Example G219] | 8% | 52% | 13% | 10%
COC(=O)c1ccc(NC(=O)c2ccc(Nc3nc(N)c(C(=O)c4c(F)cccc4F)s3)cc2)cc1OC [Example G220] | 18% | 54% | 12% | 10%
Nc1nc(Nc2ccc(C(=O)NCc3ccccc3F)cc2)sc1C(=O)c1c(F)cccc1F [Example G221] | 20% | 74% | 34% | 29%
CC(O)c1cccc(NC(=O)c2ccc(Nc3nc(N)c(C(=O)c4c(F)cccc4F)s3)cc2)c1 (centres unmarked) [Example G222] | 8% | 61% | 27% | 30%
C=C(C)CNC(=O)c1ccc(Nc2nc(N)c(C(=O)c3c(F)cccc3F)s2)cc1 [Example G223] | 14% | 50% | 19% | 14%
CCN(CC)C(=O)C1CCCN(C(=O)c2ccc(Nc3nc(N)c(C(=O)c4c(F)cccc4F)s3)cc2)C1 (centres unmarked) [Example G224] | 10% | 53% | 28% | 16%
CN(CC(O)c1ccccc1)C(=O)c1ccc(Nc2nc(N)c(C(=O)c3c(F)cccc3F)s2)cc1 (centres unmarked) [Example G225] | 0% | 51% | 41% | 36%
CCN(CCNC(=O)c1ccc(Nc2nc(N)c(C(=O)c3c(F)cccc3F)s2)cc1)c1cccc(C)c1 [Example G226] | 15% | 56% | 44% | 48%
Nc1nc(Nc2ccc(C(=O)Nc3ccc4[nH]ccc4c3)cc2)sc1C(=O)c1c(F)cccc1F [Example G227] | 17% | 84% | 17% | 28%
Nc1nc(Nc2ccc(C(=O)NCc3ccccc3Cl)cc2)sc1C(=O)c1c(F)cccc1F [Example G228] | 24% | 75% | 36% | 38%
Nc1nc(Nc2ccc(C(=O)NCCN3CCNC3=O)cc2)sc1C(=O)c1c(F)cccc1F [Example G229] | 8% | 44% | 9% | 12%
Nc1nc(Nc2ccc(C(=O)Nc3ccc(OC(F)(F)F)cc3)cc2)sc1C(=O)c1c(F)cccc1F [Example G230] | 19% | 52% | 20% | 8%
CCOC(=O)N1CCC(NC(=O)c2ccc(Nc3nc(N)c(C(=O)c4c(F)cccc4F)s3)cc2)CC1 [Example G231] | 6% | 55% | 30% | 15%
CCCN(CCO)C(=O)c1ccc(Nc2nc(N)c(C(=O)c3c(F)cccc3F)s2)cc1 [Example G233] | 16% | 48% | 21% | 10%
COc1cc(CNC(=O)c2ccc(Nc3nc(N)c(C(=O)c4c(F)cccc4F)s3)cc2)cc(OC)c1OC [Example G234] | 20% | 63% | 39% | 35%
Nc1nc(Nc2ccc(C(=O)Nc3ccccc3F)cc2)sc1C(=O)c1c(F)cccc1F [Example G235] | 10% | 51% | 14% | 14%
Nc1nc(Nc2ccc(C(=O)NCc3ccc(Cl)cc3Cl)cc2)sc1C(=O)c1c(F)cccc1F [Example G236] | 16% | 66% | 36% | 39%
